Experimental data as given in patent publication US20060025419A1, “Imidazoquinoxaline compound for the treatment of melanoma” (priority 2004, published 2006).

Legend:
NF-κB/p65 = assay: Time-lapse microscopy of GFP-p65 translocation; format: cell-based, human; conditions: SK-Mel-5, 10 μM, 7 h observation
Protocol: SK-Mel-5 cells (2×10^5 ) were cultured in 25 cm^2 culture flasks (Corning Inc., Corning, N.Y.) and transfected with 0.5 μg of GFP-p65 expression vector DNA for 14 h. […] The expression and localization of EGFP-p65 in live cells was recorded using time-lapse video microscopy (FIGS. 3A). The cytosolic and nuclear green fluorescent density was quantified by the Openlab software program (FIGS. 3B).
To test this possibility, SK-Mel-5 cells were transfected with a GFP-p65 expression vector to monitor the nuclear translocation in living cells. […] Time-lapse video microscopy was used to follow the localization of GFP-p65 in live cells. Images were captured at one-hour intervals over a 7 h observation period. The cytosol versus nuclear green fluorescent density was quantified by the Openlab software program.

A375 cells = assay: Growth of cultured melanoma cells, hemocytometer counting; format: cell-based, human
Description: (§1) A super-repressor form of human IκBα (S32, 36A) resistant to degradation and mutant IKKβ […]) was kindly provided by Javier […] Cancer Center, University of California-San Diego School of Medicine). Antibodies to IKKα (H-744), IKKβ (H-470), Bcl-2, Bax and AIF were purchased from Santa Cruz Biotechnology, Inc. (Santa Cruz, Calif.). […] N-acetyl-L-cysteine (NAC) and Tiron were from Sigma-Aldrich (St. Louis, Mo.). Normal human epidermal melanocytes (NHEM) were provided by the Skin Disease Research Center in Vanderbilt University School of Medicine. NHEM were cultured in 154 medium with 1× human melanocyte growth supplement (Cascade Biologicals, Inc.). The melanoma cell lines, Sk Mel5, A375 and Hs294T, originally established from human metastatic melanoma, were purchased from American Type Culture Collection and cultured in DMEM: Ham's F-12 medium containing 10% FBS, 2 mM of L-glutamine, 100 μM of MEM Non-Essential Amino Acids (Life Technologies, Inc.), and 1 mM of sodium pyruvate (Sigma Chemical Co.). Aberrant activation of NF-κB has been associated with carcinogenesis, and constitutively high IKK activity has been detected in many tumor types, including human melanoma (Yang & Richmond, 2001; […] et al., 2003; […] et al., 2003). IKK is a major regulator of the NF-κB pathway and therefore represents an attractive therapeutic target in advanced cancers. […] After three days of culture, the cell numbers were determined by hemocytometer counting (Table 1).

Hs 294T cells = assay: as above; format: cell-based, human
Description: as §1

[1] = tested on: Normal human epidermal melanocytes (NHEM); assay: Growth of cultured cells, hemocytometer counting; format: cell-based
Description: as §1

NF-κB = assay: NF-κB-dependent luciferase reporter assay; format: cell-based, human; conditions: 36 h
Protocol: (§2) FIGS. 2A-2D. […] SK-Mel-5 cells were plated in 6-well plates (1.5×10^5 cells per well) and then cotransfected with 1 μg of HIV long terminal repeat NF-κB-luciferase vector and β-galactosidase vector DNA using Lipofectamine Plus reagent. Twenty-four hours after transfection, cells in duplicate plates were treated with 0, 0.1, 1 and 10 μM of BMS-345541in DMSO and incubated for an additional 36 h. Cell extract was prepared and luciferase activity was detected. Luciferase activity was normalized to β-galactosidase activity. […] ATP. The [γ-^32P]-labeled IκBα protein was visualized by autoradiography. […] The supernatants from B were cleared by centrifugation, or (FIG. 2D) sera were collected from mice, and subjected to ELISA assay for CXCL1 according to the manufacture's protocol. Data shown are from a representative data set from two experiments performed in duplicate (total n=4 for each point). For ELISA; the mean value is representative of serum samples from five mice.

CXCL1 = CXCL1 ELISA of melanoma cell culture medium; format: cell-based, human; conditions: SK-Mel-5 supernatant, 14 h
Protocol: as §2
To quantify the CXCL1 expression levels in vivo and in vitro, serum was collected at the end of the experiments from mice bearing SK-Mel-5 melanoma tumors or from the cleared supernatants of melanoma cell culture medium. Briefly, 1.5×10^5 of SK-Mel-5 cells/well were seeded in six-well plates in duplicate in DMEM/F12 medium containing 10% FBS.

SK-Mel-5 cells [2] = assay: Western blot / confocal analysis of apoptotic proteins in subcellular fractions; format: cell-based, human; conditions: 10 μM
Protocol: Subcellular mitochondria and cytoplasm were prepared and subjected to Western blot analysis for Bcl-2 and Bax. […] After exposure, mitochondria were isolated and incubated with 80 μM 3,3′dihexyloxacarbocyanine iodide (DiOC6) at 37° C. for 15 min. Δψm was determined by FACS analysis using 484/530 nm filters within 10 min while gating the forward and sideward scatters on intact mitochondria (FIG. 5C). […] Subcellular extracts were prepared and subjected to Western blot analysis for cytochrome-C and AIF. […] The supernatant was assessed for cytochrome-c release. 200 μM Ca^2+ was used as a positive control.
The cellular caspase-3 activity in samples was detected as described in Materials and Methods. […] Cells were fixed and stained with propidium iodide staining as described in FIG. 4H. The percentage of cell death was measured with flow cytometry. […] Cytosol was extracted and subjected to Western blot analysis for AIF, cytochrome-c (cyto-C) and actin. Actin was used as a loading control protein. […] Ref-1 was used as a nuclear marker protein. All data shown here were from three independent experiments. […] SK-Mel-5 cells were exposed to 10 μM BMS and/or pan-caspase inhibitor (Z-VAD-fmk, 50 μM).
Proteins from cell extracts were separated by 12% SDS-PAGE and electrophoretically transferred to nitrocellulose membranes. Nonspecific binding was blocked with 5% milk in TBST buffer (4 mM Tris base, 100 mM NaCl, pH 7.5, 0.05% Tween), incubated with the indicated primary antibodies with a dilution of 1:1000 at room temperature for 2 h or 4° C. for overnight and then with horseradish peroxidase-conjugated secondary antibody for 1 h. Blots were visualized by enhanced chemiluminescence assay.
The Mitochondria Isolation Kit (Pierce, Rockford, Ill.) was used for isolation of mitochondria from cultured melanoma cells according to the manufacture's instruction for the Reagent-based method. Briefly, cells (2×10^7) were collected, washed with PBS buffer and resuspended in 0.8 ml of Reagent A on ice for 2 min. 10 μl of Reagent B was added and samples were kept on ice, with vortexing very minute for 5 min. After addition of 0.8 ml of Reagent C, the mixture was centrifuged at 700×g for 10 min to remove the cell debris and nuclei. The supernatant was then centrifuged at 3,000×g for 15 min. The pellet (mitochondria) was washed with Reagent C. The purity of mitochondria was determined by Western blotting with β-actin, where β-actin negative preparation were fully to be pure. The supernatant (cytosolic fraction) was further cleared by centrifugation at 12,000×g for 15 min.
Cells were incubated with the anti-AIF polyclonal antibody for 2 h. Cells were washed twice and incubated with the secondary antibody conjugated with FITC for 1 h.

SK-Mel-5 cells [3] = assay: Nuclear apoptosis (DNA fragmentation) by flow cytometry; format: cell-based, human; conditions: for rate of apoptotic cells: 10 μM, 24 h
Protocol: (§3) FIGS. 4A-4H. […] Paraffin-embedded tumor tissues were subjected to H&E staining (FIGS. 4C & D) and DeadEnd Fluorometric TUNEL-assay for detection of apoptosis (FIGS. 4E & F). The TUNEL-positive cells are visualized in green fluorescence in a red (Propidium Iodide) background by fluorescence microscopy. […] After 36 h incubation, cells were collected and fixed with 1% formaldehyde and 70% ice-cold ethanol. The apoptotic cells were examined using TUNEL-assay and analyzed by flow cytometry through measuring fluorescein-12-dUTP at 520 nm. The apoptotic rate is indicated in each box. Data shown are represented one of three independent experiments. […] Cells were fixed and stained with Propidium iodide. Cell fluorescence was measured by flow cytometry and the data were analyzed using DNA content histogram deconvolution software (Multicycle from Phoenix Flow Systems). The percentage of apoptotic cells with fragmented DNA (PI intensity sub-G0/G1) is indicated at each time point. The experiments were repeated twice, in duplicates for each point (total n=4).

melanoma tumor = assay: H&E and TUNEL staining of melanoma tumor sections; format: in vivo, mice
Protocol: as §3, with “The percentage of apoptotic cells with fragmented DNA (PI intensity sub-G0/G1) is indicated at each time point. The experiments were repeated twice, in duplicates for each point (total n=4).” left out
In melanoma, constitutive activation of NF-κB confers tumor survival capacity and escape from apoptosis (Richmond, 2002). […] Apoptotic cells were labeled using DeadEnd Fluorometric TUNEL reagent and analyzed by flow cytometry. […] Thirty-six hours after transfection, cells were collected, labeled with TUNEL reagent and analyzed by flow cytometry. […] Induction of DNA fragmentation, a hallmark of apoptosis, was evaluated by staining DNA with ethidium bromide followed by quantization by FACS analysis.

Cc1ccc2nc(NCCN)c3ncc(C)n3c2c1.Cl [BMS-345541, 4(2′-aminoethyl)amino-1,8-dimethylimidazo(1,2-a)quinoxaline]
GFP-p65 localization (NF-κB/p65): consistently retained GFP-p65 in the cytoplasm
cell number after three days of culture (A375 cells; A375, 0.1 μM): 3.2 ± 0.38 10^5
cell number after three days of culture (A375 cells; A375, 1.0 μM): 1.6 ± 0.38 10^5
cell number after three days of culture (A375 cells; A375, 10 μM): 0.020 ± 0.01 10^5
cell number after three days of culture (A375 cells; A375, 100 μM): 0 10^5
cell number after three days of culture (Hs 294T cells; 0.1 μM): 1.9 ± 0.15 10^5
cell number after three days of culture (Hs 294T cells; 1.0 μM): 2.2 ± 0.42 10^5
cell number after three days of culture (Hs 294T cells; 10 μM): 0.013 ± 0.01 10^5
cell number after three days of culture (Hs 294T cells; 100 μM): 0 10^5
cell number after three days of culture ([1]; 0.1 μM): 4.8 ± 0.28
cell number after three days of culture ([1]; 1.0 μM): 4.9 ± 0.38
cell number after three days of culture ([1]; 10 μM): 0.18 ± 0.04
reduction in NF-κB-dependent luciferase activity (NF-κB; SK-Mel-5, 0.1 μM): 36%
reduction in NF-κB-dependent luciferase activity (NF-κB; SK-Mel-5, 1.0 μM): 75%
reduction in NF-κB-dependent luciferase activity (NF-κB; SK-Mel-5, 10 μM): 95%
CXCL1 expression in melanoma cell cultures (CXCL1): suppressed in a concentration-dependent manner
time of cytochrome-c release into cytosol (SK-Mel-5 cells [2]): 14 h
time of initiation of AIF release into cytosol (SK-Mel-5 cells [2]): 4 h
release of pro-apoptotic molecules from mitochondria (SK-Mel-5 cells [2]; 24 h, Western blot): mitochondrial cytochrome-c release into the cytoplasm and AIF nuclear translocation
rate of apoptotic cells (SK-Mel-5 cells [3]; AIF siRNA-transfected cells): 10.3±3.8%
rate of apoptotic cells (SK-Mel-5 cells [3]; control siRNA-transfected cells): 24.3±6.8%
induction of DNA fragmentation (SK-Mel-5 cells [3]; SK-Mel-5, 10 μM, 0-48 h (FIG. 4H)): time-dependent
nuclear apoptosis in tumor sections (H&E, TUNEL) (melanoma tumor; 25 mg/kg daily): obvious nuclear condensation and DNA fragment staining
TUNEL staining of tumor sections (melanoma tumor; 75 mg/kg): TUNEL staining appeared extensively over the tumor sections
